According to US20170265465A1, “BIORATIONAL TREATMENT PRODUCTS AND METHODS OF USING SAME” (Board of Trustees of Michigan State University, priority 2014, published 2017):

Tests used:
Format in all cases: in vivo
[1] = system: creeping bentgrass (Argostis palustris) fairway; assay: Example 2: clippings (biomass) dry weight
Procedure: Objective biomass ratings were also performed based on an increase in dried weight of clippings. Clippings were collected over pre-measured plot areas in each treatment replicate using a Toro® brand walk-behind greens mower Model […] 8000 at the height described in this Example and dried in a drying oven (60° C.) for approximately 48 hours before being weighed. […] Prior to the study, diseases were controlled with as-needed fungicide applications. Fertility was maintained at approximately 0.1 lb.

[2] = system: irrigated putting green; assay: Example 15: dew rating; conditions: Sept. 15, visual scale 1 = least
Procedure: (§1) The study was established in four replications of a randomized block design utilizing 2 ft.×21 ft. plots with 6 inch alleys. Treatments were initially applied on Sep. 13, 2016 with the same sprayer and under the same conditions described in Example 1. Turfgrass quality ratings and biomass ratings were performed as described in Example 1. The plots were trimmed on September 19, October 8, and Oct. 24, 2016 and clippings were also collected as described in Example 1.
(§2) Treatments were re-applied on Sep. 28, 2016 and Oct. 11, 2016. Turfgrass visual growth and quality ratings were taken periodically, along with turfgrass color ratings as taken with a Spectrum Technologies, Inc. TCM 500 NDVI Color Meter and a Spectrum Technologies, Inc. FieldScout CM 1000 Chlorophyll Meter. The study was irrigated as needed to prevent wilt. No background fertility was applied to the study area. The area was sprayed with 26GT fungicide on Sep. 27, 2016 to control dollar spot disease.
Dew reduction (Table 25) is directly related to the amount of bio-adjuvant applied, specifically, the amount of canola oil in the treatment. Dew reduction is relevant to disease control because it can translate into reduced foliar disease pressure, and reduced frost accumulation. […] 15, 2016.

[3] = system: irrigated putting green; assay: Example 15: dried clipping weights; conditions: application interval 14 days; for All Clippings (Dried), Mean Total Clippings: Sept 19-Oct. 24
Procedure: Some biomass ratings were subjective visual estimations based on appearance of a combination of increased biomass and increased density on a 1 (least increase) to 9 (most increase) scale. Objective biomass ratings were also performed based on an increase in dried weight of clippings. Clippings were collected over pre-measured plot areas in each treatment replicate using a Toro® brand walk-behind greens mower Model Greensmaster 8000 at the height described in this Example and dried in a drying oven (60° C.) for approximately 48 hours before being weighed.
as §1, §2

[4] = system: creeping bentgrass (Argostis palustris) fairway; assay: Example 2, 2013 urea (46-0-0)/canola oil study: turfgrass quality rating; conditions: scale 1-9, 7 = acceptable
Source text: This study was established on an irrigated, creeping bentgrass (Argostis palustris) fairway (˜0.5 in (1.3 cm) height of cut) on the same research center as in Example 1. The study was established in four replications of a randomized block design, using 2 ft.×10.5 ft. (0.6 m×3.2 m) plots with 6 in. (0.15 m) alleys. Prior to the study, diseases were controlled with as-needed fungicide applications. Fertility was maintained at approximately 0.1 lb. N/1000 ft^2 (0.49 g/m^2)/mo. […] Turfgrass quality ratings and biomass ratings were performed as described in Example 1. Clippings were also collected as described in Example 1.
Treatments of sprayable urea (46-0-0) (The Andersons, Inc.) hereinafter “Urea (46-0-0)” and Civitas/Harmonizer fungicide/turf pigment (Suncor Energy Corp.) were applied initially on Aug. 22, 2013.

[5] = system: irrigated putting green; assay: Example 15: turfgrass color rating, TCM 500 NDVI Color Meter; conditions: Sept. 16, TCM 500 NDVI Turf Color Meter
Procedure: as §1, §2

[6] = system: winter-dormant creeping bentgrass putting green (Agrostis palustris); assay: Example 4, 2013 spring green-up/winter dormancy break study: turfgrass quality rating; conditions: May 11, 2013; scale 1-9, 7 = acceptable; per 1000 ft^2, as far as in the treatment: canola oil concentrate (94.7%:4.7%:0.8% oil:Foursome:Silwet L-77) 8 fl. oz., Urea 0.2 lb. N
Source text: This study was established on a brown, desiccated, winter-dormant creeping bentgrass putting green (Agrostis palustris) (˜0.15 in ([…]) height of cut) on the same research center as in previous examples. The study was established in four replications of a randomized block design, using 2 ft.×7.5 ft. (0.6 m×2.3 m) plots with 6 in. (0.15 m) alleys. Treatments were applied with the backpack sprayer described in Example 1 operating at 40 PSI (2.8 kg/cm^2) with a 96 GPA (898 L/ha) spray volume. Treatments were applied in this “green-up”/winter dormancy break study on a 21-day schedule on Apr. 5, 2013, and Apr. 27, 2013 Turfgrass quality ratings in this example included observations of increased density, increased growth, and degree of color intensity change. These observations were taken on May 11, 2013, and were based on a visual 1 (worst) −9 (best) rating scale, with a 7-rating representing acceptable turfgrass “quality.”

[7] = system: creeping bentgrass (Argostis palustris) fairway; assay: Example 2: visual growth (biomass) rating; conditions: scale 1 = least, 9 = most increase
[8] = system: irrigated putting green; assay: Example 15: turfgrass color (chlorophyll) rating, FieldScout CM 1000 Chlorophyll Meter
Procedure: as §1, §2
The turfgrass color (chlorophyll) rating of Oct.

[9] = Sep. 3, 2013, one application, per 1000 ft^2, as far as in the treatment: Urea 0.1 lb. N, Canola Oil Concentrate/Bio-Adjuvant 10 fl. oz., Civitas 8 + Harmonizer 0.5 fl. oz.
[10] = Sep. 3, 2013, Urea 0.2 lb. N/1000 ft^2, Canola Oil 10 fl. oz. or Civitas 8 + Harmonizer 0.5 fl. oz. where in the treatment
[11] = Sep. 3, 2013, Urea 0.3 lb. N/1000 ft^2, Canola Oil Bio-Adjuvant 10 fl. oz. or Civitas 8 + Harmonizer 0.5 fl. oz. where in the treatment
[12] = Trt. 4, 0.1 lb N/1000 sq. ft. /14 days
[13] = Trt. 5, 0.05 lb N/1000 sq. ft. /14 days

SMILES: NC(N)=O [Urea (46-0-0), urea]
- Clippings (Biomass) Dry wt (g) [1, 9]: 7.21 f g
- Clippings (Biomass) Dry wt (g) [1, 10]: 7.87 f g
- Clippings (Biomass) Dry wt (g) [1, 11]: 9.77 bcd g
- Dew rating, Mean [2, 12]: 5.0
- Dew rating, Mean [2, 13]: 5.0
- Dried Clipping Weight, Mean ([3]; Trt. 4, 0.1 lb N/1000 sq. ft., Oct. 8): 62.5 gms
- Dried Clipping Weight, Mean ([3]; Trt. 4, 0.1 lb N/1000 sq. ft., Oct. 24): 55.8 gms
- All Clippings (Dried), Mean Total Clippings ([3]; Trt. 4, 0.1 lb N/1000 sq. ft.): 189.8 gms
- Dried Clipping Weight, Mean ([3]; Trt. 4, 0.1 lb N/1000 sq. ft., Sept. 19): 71.5 gms
- Dried Clipping Weight, Mean ([3]; Trt. 5, 0.05 lb N/1000 sq. ft., Oct. 8): 59.5 gms
- Dried Clipping Weight, Mean ([3]; Trt. 5, 0.05 lb N/1000 sq. ft., Oct. 24): 46.5 gms
- All Clippings (Dried), Mean Total Clippings ([3]; Trt. 5, 0.05 lb N/1000 sq. ft.): 177.3 gms
- Dried Clipping Weight, Mean ([3]; Trt. 5, 0.05 lb N/1000 sq. ft., Sept. 19): 71.3 gms
- Turfgrass Quality [4, 9]: 6.5 ef
- Turfgrass Quality [4, 10]: 6.75 de
- Turfgrass Quality [4, 11]: 7.5 bc
- Turfgrass Color (Greenness), MEAN, NDVI reading [5, 12]: 0.761
- Turfgrass Color (Greenness), MEAN, NDVI reading [5, 13]: 0.755
- Turfgrass Quality [6]: 6.0 c
- Visual Growth (Biomass) [7, 9]: 3 ef
- Visual Growth (Biomass) [7, 10]: 3.75 de
- Visual Growth (Biomass) [7, 11]: 3.75 de
- Turfgrass Color (Greenness), MEAN, chlorophyll meter reading ([8]; Trt. 4, 0.1 lb N/1000 sq. ft. /14 days, Oct. 6): 352.5
- Turfgrass Color (Greenness), MEAN, chlorophyll meter reading ([8]; Trt. 4, 0.1 lb N/1000 sq. ft. /14 days, Oct. 25): 272.3
- Turfgrass Color (Greenness), MEAN, chlorophyll meter reading ([8]; Trt. 5, 0.05 lb N/1000 sq. ft. /14 days, Oct. 6): 352.3
- Turfgrass Color (Greenness), MEAN, chlorophyll meter reading ([8]; Trt. 5, 0.05 lb N/1000 sq. ft. /14 days, Oct. 25): 261
